In ChEMBL document CHEMBL1201862, “PubChem BioAssay data set” (2004):
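48-hour exposure; five concentrations; linearly interpolated endpoints. GI50 = concentration required for 50% inhibition of growth.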 Calls of active or inactive are those of the source. Cut-off read from the data, not from the text of the source: active = GI50 up to about 1.1 µM and inactive = higher.

What was measured:
Experiment in all cases: inhibition of tumour cell growth, NCI panel, 48 h
OVCAR-8 = system: OVCAR-8
MDA-N = system: MDA-N
Hs-578T = system: Hs-578T
HCT-116 = system: HCT-116
T47D = system: T47D
SNB-75 = system: SNB-75
OVCAR-3 = system: OVCAR-3
SNB-19 = system: SNB-19
CAKI-1 = system: CAKI-1
PC-3 = system: PC-3
UO-31 = system: UO-31
SN12C = system: SN12C
NCI-H460 = system: NCI-H460
ACHN = system: ACHN
RXF 393 = system: RXF 393
CCRF-CEM = system: CCRF-CEM
SW-620 = system: SW-620
HL-60 = system: HL-60

Compound | GI50 (OVCAR-8) | GI50 (MDA-N) | GI50 (Hs-578T) | GI50 (HCT-116) | GI50 (T47D) | GI50 (SNB-75) | GI50 (OVCAR-3) | GI50 (SNB-19) | GI50 (CAKI-1) | GI50 (PC-3) | GI50 (UO-31) | GI50 (SN12C) | GI50 (NCI-H460) | GI50 (ACHN) | GI50 (RXF 393) | GI50 (CCRF-CEM) | GI50 (SW-620) | GI50 (HL-60)
Cn1c(=O)c2nc(CSCc3ccccc3)[nH]c2n(C)c1=O | > 100 µM (inactive) | > 100 µM (inactive) | > 100 µM (inactive) | > 100 µM (inactive) | > 100 µM (inactive) | > 100 µM (inactive) | > 100 µM (inactive) | > 100 µM (inactive) | > 100 µM (inactive) | > 100 µM (inactive) | 41.1 µM (inactive) | 80.5 µM (inactive) | > 100 µM (inactive) | > 100 µM (inactive) | > 100 µM (inactive) | – | – | –
Nc1ccc2c(c1)C(=O)c1c(F)cccc1-2 | 43.1 µM (inactive) | 93.3 µM (inactive) | 27.9 µM (inactive) | 30.5 µM (inactive) | 63.8 µM (inactive) | 10.4 µM (inactive) | 25.9 µM (inactive) | 53.1 µM (inactive) | 23.6 µM (inactive) | 31.2 µM (inactive) | 20.8 µM (inactive) | 39.1 µM (inactive) | 31 µM (inactive) | 34.1 µM (inactive) | 42.2 µM (inactive) | 15 µM (inactive) | 34.5 µM (inactive) | –
CC1=CC(=O)CC(C)(C)C1/C=C/C(C)=C/C=C/C(C)=C/C=C/C=C(C)/C=C/C=C(C)/C=C/C1C(C)=CC(=O)CC1(C)C (stereo unspecified) | 20.1 µM (inactive) | 35.1 µM (inactive) | 30.8 µM (inactive) | 20.2 µM (inactive) | > 100 µM (inactive) | – | 30.5 µM (inactive) | – | 58.7 µM (inactive) | 41.1 µM (inactive) | 67.5 µM (inactive) | – | 86.1 µM (inactive) | 30 µM (inactive) | > 100 µM (inactive) | 21.6 µM (inactive) | 23.2 µM (inactive) | 38.5 µM (inactive)
Cc1nnc(N)nc1C/C=C/C(C)Sc1ccc(Cl)cc1 (stereo unspecified) | 16.5 µM (inactive) | 14.4 µM (inactive) | 7.14 µM (inactive) | 5.74 µM (inactive) | 8.07 µM (inactive) | 6.01 µM (inactive) | – | 5.58 µM (inactive) | 7.94 µM (inactive) | 4.35 µM (inactive) | 3.49 µM (inactive) | 11.1 µM (inactive) | 7.55 µM (inactive) | 7.46 µM (inactive) | 7.28 µM (inactive) | 2.33 µM (inactive) | 9.04 µM (inactive) | 3.89 µM (inactive)
C=CCC1(O)c2cccc(O)c2C(=O)c2c(O)cccc21 | 32.2 µM (inactive) | 9.93 µM (inactive) | 24.4 µM (inactive) | 23.1 µM (inactive) | 23.3 µM (inactive) | 21.1 µM (inactive) | 47.9 µM (inactive) | – | 31.2 µM (inactive) | 26 µM (inactive) | 27.8 µM (inactive) | – | 31.8 µM (inactive) | 32.5 µM (inactive) | 15.9 µM (inactive) | – | 31.6 µM (inactive) | 20.5 µM (inactive)
COc1ccc(NC(=S)N/N=C(\c2ccccc2)c2ccccn2)cc1 | 0.0218 µM (active) | 0.263 µM (active) | 10.3 µM (inactive) | < 0.01 µM (active) | < 0.0317 µM (active) | – | < 0.01 µM (active) | 2.84 µM (inactive) | 0.034 µM (active) | < 0.01 µM (active) | 0.132 µM (active) | 0.052 µM (active) | 0.0931 µM (active) | < 0.027 µM (active) | 0.603 µM (active) | 0.01 µM (active) | < 0.01 µM (active) | < 0.01 µM (active)
